Measured values: patent US11873291B2, “Quinoline cGAS antagonist compounds” (ImmuneSensor Therapeutics, Inc., priority 2020, dated 2024)

These molecules were tested against T1, recombinant human cGAS (aa147-522) (Homo sapiens, UniProt Q8N884) (assay: In vitro inhibition assay of cGAS activity (ATP consumption, KinaseGlo Max)). Conditions: Table 2, read-out: cGAS Inhibition Results IC50.
T1 construct: recombinant human cGAS (aa147-522); His6-SUMO (cleaved yes); made in house; host or cells: E. coli BL21/pLys
Format: biochemical
Outline: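 De-tagged recombinant human cGAS (aa147-522, 1.5 μg/mL) was incubated 20 min at 37 °C with herring testis DNA, 6.6 μM ATP and 0.1 mM GTP in Tris pH 7.5/MgCl2 buffer plus serial compound dilutions. Remaining ATP was read by KinaseGlo Max luminescence, and IC50 was fitted from % ATP consumption versus log concentration.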

T1 sequence (Q8N884 147-522): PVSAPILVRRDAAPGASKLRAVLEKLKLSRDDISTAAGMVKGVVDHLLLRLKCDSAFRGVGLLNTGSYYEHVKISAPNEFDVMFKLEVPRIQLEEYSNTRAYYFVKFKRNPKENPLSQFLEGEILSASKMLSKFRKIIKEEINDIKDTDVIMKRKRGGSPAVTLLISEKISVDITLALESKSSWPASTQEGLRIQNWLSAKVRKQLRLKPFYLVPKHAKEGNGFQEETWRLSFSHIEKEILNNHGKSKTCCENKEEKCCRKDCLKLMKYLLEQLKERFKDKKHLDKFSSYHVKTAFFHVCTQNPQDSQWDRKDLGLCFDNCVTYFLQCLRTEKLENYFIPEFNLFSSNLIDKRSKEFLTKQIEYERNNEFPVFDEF

Row | Compound | IC50
1 | O=P(O)(O)CNc1cc(-c2cn[nH]c2)c2ccc(Cl)c(Cl)c2n1 [I-254, (7,8-dichloro-4-(1H-pyrazol-4-yl)quinolin-2-ylamino)methylphosphonic acid] | < 2000 nM
2 | O=C(O)CCNC(=O)[C@@H]1CCCN1c1cc(-n2ccnc2)c2ccc(Cl)c(Cl)c2n1 [I-324] | < 2000 nM
3 | OCCCc1cc(-c2cn[nH]c2)c2ccc(Cl)c(Cl)c2n1 [I-271, 3-(7,8-dichloro-4-(1H-pyrazol-4-yl)quinolin-2-yl)propan-1-ol] | 2000 to 30000 nM
4 | O=c1[nH]c(=O)c2ccc(S(=O)(=O)NC[C@@H]3CCCN3c3cc(-n4ccnc4)c4ccc(Cl)c(Cl)c4n3)cc2[nH]1 [I-392] | 2000 to 30000 nM
5 | O=C(NO)[C@@H]1CCCN1c1cc(-n2ccnc2)c2ccc(Cl)c(Cl)c2n1 [I-449] | < 2000 nM
6 | Clc1ccc2c(-n3ccnc3)cc(Nc3ccccc3)nc2c1 [I-355] | 2000 to 30000 nM
7 | O=C(O)CN(CC(=O)O)c1cc(-n2ccnc2)c2ccc(Cl)c(Cl)c2n1 [I-174] | < 2000 nM
8 | Cc1c(Cl)ccc2c(-n3ccnc3)ccnc12 [I-421, 7-chloro-4-(1H-imidazol-1-yl)-8-methylquinoline] | 2000 to 30000 nM
9 | Oc1cc(OC(F)(F)F)cc(-c2cc(-n3ccnc3)c3ccc(Cl)c(Cl)c3n2)c1 [I-44] | > 30000 nM
10 | OCC1CCCN(c2cc(-n3ccnc3)c3ccc(Cl)cc3n2)C1 (stereo not shown) [I-140] | 2000 to 30000 nM
11 | O=C1NC(=O)/C(=C\c2cc(-n3ccnc3)c3ccc(Cl)c(Cl)c3n2)S1 [I-276, (E)-5-((7,8-dichloro-4-(1H-imidazol-1-yl)quinolin-2-yl)methylene)thiazolidine-2,4-dione] | < 2000 nM
12 | O=C(O)Cc1cccc(-c2cc(-n3ccnc3)c3ccc(Cl)cc3n2)c1 [I-9] | > 30000 nM
13 | COCn1nccc1S(=O)(=O)NCCN(C)c1cc(-n2ccnc2)c2ccc(Cl)cc2n1 [I-229] | > 30000 nM
14 | O=C(O)CN(CCN1CCOCC1)c1cc(-n2ccnc2)c2ccc(Cl)c(Cl)c2n1 [I-172, N-(7,8-dichloro-4-(1H-imidazol-1-yl)quinoline-2-yl)-N-(2-morpholinoethyl)glycine] | 2000 to 30000 nM
15 | O=[PH](O)OCCC1CCCN(c2cc(-c3cn[nH]c3)c3ccc(Cl)c(Cl)c3n2)C1 (stereo not shown) [I-330] | < 2000 nM
16 | N#CCc1cn(-c2cc(-c3ccccc3)nc3cc(Cl)ccc23)cn1 [I-64] | > 30000 nM
17 | OC[C@@H]1CCCN1c1cc(-c2cn[nH]c2)c2ccc(Cl)c(Cl)c2n1 [I-138] | < 2000 nM
18 | O=C(O)C[C@@H](Nc1cc(-n2ccnc2)c2ccc(Cl)c(Cl)c2n1)c1ccccc1 [I-189] | 2000 to 30000 nM
19 | CN(C)C(=O)[C@@H]1CCCN1c1cc(-n2ccnc2)c2ccc(Cl)c(Cl)c2n1 [I-453] | > 30000 nM
20 | O[C@H]1CCCN(c2cc(-n3ccnc3)c3ccc(Cl)c(Cl)c3n2)C1 [I-133] | < 2000 nM
21 | CN(CCCO[PH](=O)O)c1cc(-c2cn[nH]c2)c2ccc(Cl)c(Cl)c2n1 [I-256] | < 2000 nM
22 | Oc1ccc(-c2cc(-c3ccccc3)nc3cc(Cl)ccc23)cn1 [I-73] | > 30000 nM
23 | CC(C)N(CCS(=O)(=O)O)c1cc(-n2ccnc2)c2ccc(Cl)c(Cl)c2n1 [I-165] | < 2000 nM
24 | C[C@@H](Nc1cc(-c2cn[nH]c2)nc2c(Cl)c(Cl)ccc12)C(=O)OC(C)(C)C [I-290] | 2000 to 30000 nM

Row | Compound | IC50
25 | O[C@@H]1CCN(c2cc(-n3ccnc3)c3ccc(Cl)c(Cl)c3n2)C1 [I-145] | < 2000 nM
26 | NS(=O)(=O)OCC1CN(c2cc(-n3ccnc3)c3ccc(Cl)c(Cl)c3n2)CCO1 (stereo not shown) [I-96] | < 2000 nM
27 | O=C(O)CN(CCCO)c1cc(-n2ccnc2)c2ccc(Cl)c(Cl)c2n1 [I-173] | 2000 to 30000 nM
28 | C[C@H](CS(N)(=O)=O)Nc1cc(-n2ccnc2)c2ccc(Cl)c(Cl)c2n1 [I-207] | < 2000 nM
29 | O=S(=O)(NC1CCCN(c2cc(-n3ccnc3)c3ccc(Cl)cc3n2)C1)c1ccccc1 (stereo not shown) [I-107] | > 30000 nM
30 | O=C1CCN(c2cc(-n3ccnc3)c3ccc(Cl)c(Cl)c3n2)CCN1 [I-88] | 2000 to 30000 nM
31 | CNC(=O)CCN(C)c1cc(-c2cn[nH]c2)c2ccc(Cl)c(Cl)c2n1 [I-192] | < 2000 nM
32 | OCC(CO)Nc1cc(-n2ccnc2)c2ccc(Cl)c(Cl)c2n1 [I-249] | < 2000 nM
33 | CS(=O)(=O)CCC(Nc1cc(-n2ccnc2)c2ccc(Cl)c(Cl)c2n1)C(=O)O (stereo not shown) [I-170, 2-((7,8-Dichloro-4-(1H-imidazol-1-yl)quinolin-2-yl)amino)-4-(methylsulfonyl)butanoic acid] | < 2000 nM
34 | O=C(CO)N[C@@H]1C[C@@H](C(=O)O)N(c2cc(-n3ccnc3)c3ccc(Cl)c(Cl)c3n2)C1 [I-346] | < 2000 nM
35 | O=C(O)C1CCCCC1Nc1cc(-n2ccnc2)c2ccc(Cl)cc2n1 (stereo not shown) [I-333] | > 30000 nM
36 | O[C@@H]1CCCN(c2cc(-n3ccnc3)c3ccc(Cl)c(Cl)c3n2)C1 [I-134] | 2000 to 30000 nM
37 | Clc1cc2nc(-c3ccccc3)cc(-n3ccnc3)c2cc1Cl [I-50] | < 2000 nM
38 | OCCN(CCN1CCOCC1)c1cc(-c2cn[nH]c2)c2ccc(Cl)c(Cl)c2n1 [I-218] | < 2000 nM
39 | O=C(O)c1ccc(Cl)c(-c2cc(-n3ccnc3)c3ccc(Cl)cc3n2)c1 [I-31] | > 30000 nM
40 | O=C(O)CNc1cc(Cl)nc2c(Cl)c(Cl)ccc12 [I-294] | > 30000 nM
41 | OC[C@H](Nc1cc(-n2ccnc2)c2ccc(Cl)c(Cl)c2n1)c1ccccc1 [I-247] | 2000 to 30000 nM
42 | O=C(N[C@@H]1C[C@@H](C(=O)O)N(c2cc(-n3ccnc3)c3ccc(Cl)c(Cl)c3n2)C1)c1ccccc1 [I-350] | < 2000 nM
43 | CC(=O)c1cn(-c2cc(-c3ccccc3)nc3cc(Cl)ccc23)cn1 [I-66] | > 30000 nM
44 | CC(C)(C)OC(=O)N1CCOC(CNc2cc(-c3cn[nH]c3)c3ccc(Cl)c(Cl)c3n2)C1 (stereo not shown) [I-399] | 2000 to 30000 nM
45 | Clc1ccc2c(Cl)cc(-c3cn[nH]c3)nc2c1Cl [I-404, 4,7,8-trichloro-2-(1H-pyrazol-4-yl)quinoline] | > 30000 nM
46 | CN(CCNS(=O)(=O)c1ccccc1)c1cc(-n2ccnc2)c2ccc(Cl)cc2n1 [I-227] | > 30000 nM
47 | Clc1ccc2c(-c3cn[nH]c3)cc(NCCN3CCOCC3)nc2c1Cl [I-213] | 2000 to 30000 nM

Same assay, conditions: Table 3, read-out: cGAS Inhibition Results IC50

Row | Compound | IC50
48 | O=C(O)[C@@H]1CC(F)(F)CN1c1cc(-n2ccnc2)c2ccc(Cl)c(Cl)c2n1 [I-520] | < 2000 nM
49 | COC(=O)[C@@H]1[C@@H](OC)CCN1c1cc(-n2ccnc2)c2ccc(Cl)c(Cl)c2n1 [I-646, methyl (2S,3S)-1-(7,8-dichloro-4-(1H-imidazol-1-yl)quinolin-2-yl)-3-methoxypyrrolidine-2-carboxylate] | 2000 to 30000 nM
50 | CC1(C)C[C@@H](C(=O)O)N(c2cc(-n3ccnc3)c3ccc(Cl)c(Cl)c3n2)C1 [I-479] | < 2000 nM
51 | CN(CCS(=O)(=O)N1CCCC1C(=O)O)c1cc(-n2ccnc2)c2ccc(Cl)c(Cl)c2n1 (stereo not shown) [I-626] | < 2000 nM
52 | CC(C)N(CCCOc1cccc(F)c1C(=O)O)c1cc(-n2ccnc2)c2ccc(Cl)c(Cl)c2n1 [I-850] | 2000 to 30000 nM
53 | CN(CCN(CC(=O)O)S(C)(=O)=O)c1cc(-n2ccnc2)c2ccc(Cl)c(Cl)c2n1 [I-635, N-(2-((7,8-dichloro-4-(1H-imidazol-1-yl)quinolin-2-yl)(methyl)amino)ethyl)-N-(methylsulfonyl)glycine] | < 2000 nM
54 | COC(=O)[C@@H]1C[C@H](O)CN1c1cc(-n2ccnc2)c2ccc(Cl)c(Cl)c2n1 [I-459] | 2000 to 30000 nM
55 | O=C(O)c1ccc(S(=O)(=O)NC[C@@H]2CCCN2c2cc(-n3ccnc3)c3ccc(Cl)c(Cl)c3n2)cc1 [I-640] | < 2000 nM
56 | COC(=O)C1=CCCN1c1cc(-n2ccnc2)c2ccc(Cl)c(Cl)c2n1 [I-652, methyl 1-(7,8-dichloro-4-(1H-imidazol-1-yl)quinolin-2-yl)-4,5-dihydro-1H-pyrrole-2-carboxylate] | 2000 to 30000 nM
57 | CN(CCS(=O)(=O)NC1CCCC(C(=O)O)C1)c1cc(-n2ccnc2)c2ccc(Cl)c(Cl)c2n1 (stereo not shown) [I-628] | < 2000 nM
58 | O=C(O)Cc1csc(CNc2cc(-n3ccnc3)c3ccc(Cl)c(Cl)c3n2)n1 [I-881] | < 2000 nM
59 | O=C(O)c1ccnn1CC[C@@H]1CCCN1c1cc(-n2ccnc2)c2ccc(Cl)c(Cl)c2n1 [I-729] | < 2000 nM
60 | O[C@@H]1CN(c2cc(-n3ccnc3)c3ccc(Cl)c(Cl)c3n2)C[C@H]1O [I-501] | < 2000 nM
61 | O=C(O)CNC(=O)O[C@@H]1C[C@@H](C(=O)O)N(c2cc(-n3ccnc3)c3ccc(Cl)c(Cl)c3n2)C1 [I-607] | < 2000 nM
62 | Clc1ccc2c(-n3ccnc3)cc(N3CCC[C@H]3c3nn[nH]n3)nc2c1Cl [I-465] | < 2000 nM
63 | O=C(O)CCOC(C(=O)O)[C@@H]1CCCN1c1cc(-n2ccnc2)c2ccc(Cl)c(Cl)c2n1 (stereo partly shown) [I-818] | 2000 to 30000 nM
64 | NS(=O)(=O)CC1CCCN1C(=O)C[C@@H]1CCCN1c1cc(-n2ccnc2)c2ccc(Cl)c(Cl)c2n1 (stereo partly shown) [I-534] | 2000 to 30000 nM
65 | O=C(O)COC[C@H]1CCCN(c2cc(-c3cn[nH]c3)c3ccc(Cl)c(Cl)c3n2)C1 [I-746] | < 2000 nM
66 | O=C(O)CCOC[C@H]1CCCCN1c1cc(-n2ccnc2)c2ccc(Cl)c(Cl)c2n1 [I-790] | 2000 to 30000 nM
67 | O=C(O)CCOC[C@@H]1CCCN1c1cc(-c2ccoc2)c2ccc(Cl)c(Cl)c2n1 [I-824] | > 30000 nM
68 | O=C(O)[C@@H]1C[C@@H](O)CN1c1cc(-n2ccnc2)c2ccc(Cl)c(Cl)c2n1 [I-514] | < 2000 nM
69 | O=C(NC[C@@H]1CCCN1c1cc(-n2ccnc2)c2ccc(Cl)c(Cl)c2n1)c1cc(O)no1 [I-641] | < 2000 nM
70 | O=C(O)CCOC[C@@H]1CCCN1c1cc(-c2cc[nH]n2)c2ccc(Cl)c(Cl)c2n1 [I-823] | > 30000 nM
71 | CCOc1c(Cl)ccc2c(-n3ccnc3)cc(N3CCC[C@H]3COCCC(=O)O)nc12 [I-861] | > 30000 nM
72 | O=C(O)C1CCN(C(=O)C[C@@H]2CCCN2c2cc(-n3ccnc3)c3ccc(Cl)c(Cl)c3n2)C1 (stereo partly shown) [I-524] | < 2000 nM

Same assay, conditions: cGAS Inhibition Results IC50, Table 2

Row | Compound | IC50
73 | CCOP(=O)(O)Cc1cc(-n2ccnc2)c2ccc(Cl)c(Cl)c2n1 [I-252, Ethyl hydrogen (7,8-dichloro-4-(1H-imidazol-1-yl)quinolin-2-yl)methylphosphonate] | 2000 to 30000 nM
